Experimental data from US11584745B2, “Aromatic heterocyclic compound, intermediate thereof, preparation method therefor, and pharmaceutical composition and use thereof” (SHANGHAI YINGLI PHARMACEUTICAL CO., LTD, priority 2018, dated 2023).

target: ALK5 (Homo sapiens (Human), UniProt P36897); experiment: Evaluation experiment of ALK5 enzyme activity inhibition IC50 (ADP-Glo kinase assay); assay type: biochemical; conditions: 25 nM ALK5, 0.1 mg/mL peptide TGFbR1, 7 μM ATP, 30° C. 1 hour, ADP-Glo luminescence
Sequence (P36897 34-503): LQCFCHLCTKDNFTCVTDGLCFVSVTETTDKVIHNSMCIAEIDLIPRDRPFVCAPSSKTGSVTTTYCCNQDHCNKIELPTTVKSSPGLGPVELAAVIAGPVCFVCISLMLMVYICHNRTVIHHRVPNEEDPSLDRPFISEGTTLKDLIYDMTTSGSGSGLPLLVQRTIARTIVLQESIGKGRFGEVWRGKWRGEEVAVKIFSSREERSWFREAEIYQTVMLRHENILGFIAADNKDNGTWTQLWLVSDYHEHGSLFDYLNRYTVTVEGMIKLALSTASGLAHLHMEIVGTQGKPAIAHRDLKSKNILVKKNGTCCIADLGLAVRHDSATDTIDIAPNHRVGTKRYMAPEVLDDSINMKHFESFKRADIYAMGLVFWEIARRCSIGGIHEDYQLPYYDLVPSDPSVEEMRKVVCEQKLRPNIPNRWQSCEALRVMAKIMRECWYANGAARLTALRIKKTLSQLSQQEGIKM
Procedure: 1×kinase buffer preparation: 40 mM Tris (pH 7.5), 20 mM MgCl2, 0.10% BSA, 1 mM DTT.
Compound preparation: The final detection concentration of the compound was 10 μM, which was configurated to a 100-fold concentration, i.e., 1 mM. In the second well of the 384-well plate, 100 μL of 100-fold compound was added, and 60 μL of 100% DMSO was added to other wells. 30 μL of compound from the second well was taken and added to the third well, and a 3-fold dilution was made in sequence, a total of 10 concentrations were diluted. 50 nL of compound was transferred to the reaction plate with echo.
Kinase reaction: Kinase was added to 1×kinase buffer to form a 2×enzyme solution. […] The polypeptide TGFbR1 (purchased from Signal Chem, catalog number T36-58) and ATP were added to 1×kinase buffer to form a 2×substrate solution. The final concentration of the substrate solution was 0.1 mg/mL peptide TGFbR1, 7 μM ATP. 2.5 μL of 2×enzyme solution was added to the 384-well reaction plate (there was already 50 nL of 100% DMSO dissolved compound), and 1×kinase buffer was added to the negative control well. The plate was incubated at room temperature for 10 minutes. 2.5 μL of 2× substrate solution was added to the 384-well reaction plate. The 384-well plate was covered and incubated at 30° C. for 1 hour. ADP-Glo reagent (purchased from Promege, catalog number v9102) was equilibrated to room temperature. 5 μL of ADP-Glo reagent was transferred to the reaction well of the 384-well plate to stop the reaction.
Detection of reaction results: 10 μL of kinase detection reagent was transferred to each reaction well, the plate was shaken for 1 minute and placed at room temperature for 30 minutes. The sample luminescence value was read at Synegy.
Curve fitting: The data of the luminescence reading from the Synegy program were copied. The value of the luminescence reading was converted into the percentage of inhibition by a formula (inhibition percent=(max-sample RLU)/(max-min)*100, wherein “min” was a […] reading of the control sample without enzyme; “max” was the […] reading of sample with DMSO as a control). The data were imported into MS Excel and GraphPad Prism was used for curve fitting. The ICso value was calculated.

IC50 [nM]	SMILES
75	Cc1cccc(-c2cccnc2-c2ccc3ncc(C(N)=O)n3c2)n1 [Compound 19]
76	CNC(=O)c1cnc2ccc(-c3ncccc3-c3cccc(C)n3)cn12 [Compound 20]
19	Cc1cccc(-n2cccc2-c2ccc3ncc(C(N)=O)n3c2)n1 [Compound 4]
13	Cc1cccc(-c2cccn2-c2ccc3ncc(C(N)=O)n3c2)n1 [Compound 1]
105	Cc1cccc(-n2cccc2-c2ccc3ncc(C(=O)N(C)C)n3c2)n1 [Compound 5]

Continued, molecule first:

SMILES	IC50 [nM]
Cc1cccc(-c2cc(C)sc2-c2ccc3ncc(C(N)=O)n3c2)n1 [Compound 18]	9.4
Cc1cccc(-c2cnsc2-c2ccc3nccn3c2)n1 [Compound 16]	165
Cc1csc(-c2ncccc2-c2ccc3ncc(C(N)=O)n3c2)n1 [Compound 23]	21
Cc1cccc(-c2ccsc2-c2ccc3ncc(C(N)=O)n3c2)n1 [Compound 17]	5.2
Cc1cccc(-c2cncn2-c2ccc3ncc(C(N)=O)n3c2)n1 [Compound 9]	136
Cc1cccc(-c2nccn2-c2ccc3ncc(C(N)=O)n3c2)n1 [Compound 8]	7
Cc1cccc(-c2cc3ccccc3n2-c2ccc3ncc(C(N)=O)n3c2)n1 [Compound 25]	14
